Here are results for one compound from patent publication US11229628B2, “TRPA1 and TRPV4 inhibitors and methods of using the same for organ-specific inflammation and itch” (Duke University, priority 2015, dated 2022).

“Also recorded” adds a separate entry of the source.

Assay [1] deals with ET1 secretion by 1° MK. The experiment in a line: ET1 secretion by non-stimulated 1° MK (ELISA of supernatant). Type of assay: cell-based, mouse. Here is the method:
FIG. 8: Central role for KC TRPV4 in UVB-evoked Ca^++ signaling and nocifensive behavior—ET1-related supplementary findings. (A) Augmentation of GSK101-evoked Ca^++ signaling by ET1. Shown are averaged Ca^++ measurements (fura-2) in response to 5 nM GSK101. […] (B) ET1 secretion by non-stimulated 1° MK depends on TRPV4 and PLC. Shown are relative ET1 concentrations (determined by ELISA, pg/mL; vehicle-treated and WT control normalized to 100) in supernatant of non-stimulated 1° MK. Note the clear dependence on TRPV4, as indicated by a 50% reduction in Trpv4^−/− 1° MK. […] In addition, PLC-inhibitor robustly affects ET1 secretion in WT and Trpv4^−/− 1° MK. (C) ET1 expression by UVB-exposed 1° MK depends on TRPV4 and PLC—immunocytochemistry. Shown is specific ET1 immunolabeling in 1° MK, exposed to UVB using the UVB-LEDs, as for Ca^++ imaging. Use of the UVB-LED device precluded application of a ET1 ELISA, only irradiated cells could be examined. […] (D) ET1 expression by UVB-exposed 1° MK depends on TRPV4 and PLC—quantification of immunocytochemistry.
We tested whether UVB causes ET1 upregulation in a TRPV4-dependent manner. Given the exquisite wave-length dependence of ET1 expression in 1° MKs, we resorted to the UVB-LED device as for Ca++ imaging (FIG. 6A and FIG. 2A-D). […] Consistent with its effects on UVB-evoked Ca++ transients, PLC-inhibitor U73122 also dampened ET1 expression. […] This leads to TRPV4-dependent Ca++ signaling, which in turn amplifies ET1 signaling in a paracrine/autocrine fashion.

Assay [2] has as its target T1, TRPV4 (Mus musculus, UniProt Q9EPK8).
T1 construct: Primary mouse keratinocytes were derived from back skin of newborn mice; endogenous in cells; host or cells: primary mouse epidermal keratinocytes (1° MK), wild type
Kind of assay: GSK101-evoked Ca++ transient in 1° MK (fura-2). The format is cell-based. Conditions: 5 nM GSK101; 20 μM GSK205. The protocol: Ca++ imaging of mouse 1° MK in response to chemical activation of TRPV4 was conducted after loading with 2 μM fura2-AM, following a ratiometric Ca2+ imaging protocol with 340/380 nm […] for dual excitation. Ratios of emissions were acquired at 0.5 Hz. ΔR/R0 was determined as the fraction of the increase of a given ratio over baseline ratio, divided by baseline ratio. For stimulation of cells with UVB, where fura-2 was not suitable because of the proximity of stimulation with 340/380 nm and 295 nm, 2 μM fluo4-AM was used instead. Ca++ imaging was carried out at 488 nm excitation, acquisition of emissions at 0.5 Hz, expressed as ΔF/F0. In the custom-built UV optical system, UV LEDs were capped with a ball lens, a transparent optical window in the shape of a hemispherical lens (FIG. 2B). The LED output optical beam focused at 15-20 mm from the lens, with a spot diameter of approximately 1.5˜2.0 mm (FIG. 2C). […] The thermal equilibration stage was set for physiological temperature. We confirmed the non-thermal nature of UVB stimulation using the customized 295 nm LED device in a dedicated experiment (FIG. 2D), thus confirming the specific modality of stimulation as UVB.
We obtained corroborating findings by chemically activating TRPV4 with GSK101, which can directly stimulate TRPV4 in WT 1° MK. […]

T1 sequence (Q9EPK8 whole entry): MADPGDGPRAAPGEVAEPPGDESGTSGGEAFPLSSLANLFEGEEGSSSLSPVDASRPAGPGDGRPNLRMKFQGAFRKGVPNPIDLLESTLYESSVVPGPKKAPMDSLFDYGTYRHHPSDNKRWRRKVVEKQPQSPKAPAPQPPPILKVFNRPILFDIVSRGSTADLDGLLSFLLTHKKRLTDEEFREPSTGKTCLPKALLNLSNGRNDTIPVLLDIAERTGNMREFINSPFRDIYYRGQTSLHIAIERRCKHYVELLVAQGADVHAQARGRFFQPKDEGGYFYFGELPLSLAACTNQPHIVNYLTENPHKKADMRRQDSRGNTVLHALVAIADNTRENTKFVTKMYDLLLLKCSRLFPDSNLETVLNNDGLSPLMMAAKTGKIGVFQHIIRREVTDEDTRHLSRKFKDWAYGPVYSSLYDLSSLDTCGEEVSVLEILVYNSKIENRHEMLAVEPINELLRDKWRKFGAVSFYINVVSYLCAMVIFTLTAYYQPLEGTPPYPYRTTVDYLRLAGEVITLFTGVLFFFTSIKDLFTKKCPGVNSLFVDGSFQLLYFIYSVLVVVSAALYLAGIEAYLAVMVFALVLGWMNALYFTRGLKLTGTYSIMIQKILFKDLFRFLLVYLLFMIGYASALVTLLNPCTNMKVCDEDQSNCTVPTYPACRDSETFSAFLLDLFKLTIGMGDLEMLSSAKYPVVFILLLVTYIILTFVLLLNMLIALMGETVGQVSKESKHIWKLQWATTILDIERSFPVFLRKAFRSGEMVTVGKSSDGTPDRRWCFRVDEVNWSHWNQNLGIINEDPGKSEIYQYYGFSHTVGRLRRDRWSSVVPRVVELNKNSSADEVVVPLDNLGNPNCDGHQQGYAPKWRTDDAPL

In the case of `CN(CCc1ccc(Nc2nc(-c3cccnc3)cs2)cc1)Cc1ccccc1` [GSK205], the “ET1 secretion by non-stimulated 1° MK” value in assay [1] is reported as “significant down-regulation”. Moreover, in assay [2], the “GSK101-evoked Ca++ transient” value is listed as “eliminated; also recorded: completely blocked”.
